Key:
hNOP receptor [1] = biological target: T1, hNOP receptor (Homo sapiens, UniProt P41146); format: cell-based
NOP receptor [2] = biological target: T2, NOP receptor (Mus musculus, UniProt P35377); format: cell-based
NOP receptor [3] = biological target: T2, NOP receptor; assay: In vivo NOP receptor phosphorylation in brain of NOP-eGFP knock-in mice; details: SB 612111 30 mg/kg pretreatment 30 min, then AT-202 30 mg/kg
hNOP receptor [4] = biological target: T1, hNOP receptor; format: cell-based; remark: listed apart in the source
NOP receptor [5] = details: cited from earlier work

T1 sequence (P41146 whole entry): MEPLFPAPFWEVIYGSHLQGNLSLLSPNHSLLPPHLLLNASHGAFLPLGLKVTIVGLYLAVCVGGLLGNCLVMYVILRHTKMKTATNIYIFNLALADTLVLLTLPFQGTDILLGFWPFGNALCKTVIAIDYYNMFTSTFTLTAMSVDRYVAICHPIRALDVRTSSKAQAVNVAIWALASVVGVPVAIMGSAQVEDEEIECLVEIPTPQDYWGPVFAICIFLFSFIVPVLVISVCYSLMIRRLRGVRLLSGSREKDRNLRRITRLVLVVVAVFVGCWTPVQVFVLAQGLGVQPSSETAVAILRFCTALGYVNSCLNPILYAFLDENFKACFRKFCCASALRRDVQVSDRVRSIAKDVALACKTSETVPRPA
T2 sequence (P35377 whole entry): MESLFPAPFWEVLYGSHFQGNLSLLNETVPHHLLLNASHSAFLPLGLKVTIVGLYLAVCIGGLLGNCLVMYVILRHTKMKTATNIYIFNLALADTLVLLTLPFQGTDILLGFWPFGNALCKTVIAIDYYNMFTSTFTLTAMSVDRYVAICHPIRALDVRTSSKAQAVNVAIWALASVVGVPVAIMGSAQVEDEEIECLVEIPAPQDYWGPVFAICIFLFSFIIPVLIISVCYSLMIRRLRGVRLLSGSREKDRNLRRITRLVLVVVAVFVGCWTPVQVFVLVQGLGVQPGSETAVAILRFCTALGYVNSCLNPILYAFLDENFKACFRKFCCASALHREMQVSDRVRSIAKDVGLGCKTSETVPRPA

C=C[C@@]1(C)CC(=O)[C@]2(O)[C@@]3(C)[C@@H](O)CCC(C)(C)[C@@H]3[C@H](O)[C@H](OC(C)=O)[C@@]2(C)O1 [Forskolin, forskolin]
NOP receptor phosphorylation by second messenger kinase activators (hNOP receptor [1]): did not produce any detectable phosphorylation

CC1(N2CCC(n3c([C@@H]4CCCNC4)nc4ccccc43)CC2)CCCCCCC1 [MCOPPB]
NOP receptor internalization in ventral midbrain neurons (NOP receptor [2]): strong MCOPPB-induced NOP receptor internalization

Cc1cccc2c1CC[C@H](CN1CCC(c3c(Cl)cccc3Cl)CC1)C[C@@H]2O [SB 612111, (−)-cis-1-methyl-7-[[4-(2,6-dichlorophenyl)piperidin-1-yl]methyl]-6,7,8,9-tetrahy dro-5H-benzocyclohepten-5-ol]
Inhibition of N/OFQ-induced NOP receptor phosphorylation (hNOP receptor [1]): completely blocked N/OFQ-induced phosphorylation
Block of AT-202-induced NOP receptor phosphorylation in mouse brain (NOP receptor [3]): could be blocked

CN1CCc2cc(Cl)c(O)cc2[C@@H](c2ccccc2)C1 [SCH23390]
Effect on N/OFQ-induced hyperpolarization (hNOP receptor [4]): reversed the N/OFQ-evoked hyperpolarization

buprenorphine
Agonist-induced NOP receptor phosphorylation at Ser346, Ser351 and Thr362/Ser363 (hNOP receptor [1]): complete lack of NOP receptor phosphorylation
Agonist efficacy at the NOP receptor in cAMP inhibition assays (NOP receptor [5]): partial agonists
Agonist activity in G protein signaling / GIRK channel activation (hNOP receptor [4]): partial agonistic activity with a remarkably reduced maximal effect compared with N/OFQ
